What is called IC50 is the point on the concentration scale where inhibition reaches its midpoint. As usually defined, the ED50 is the dose at which the effect has come halfway, by size or by number of responders. Low values mean an effect at a small dose, high ones a need for a large dose.

Data set [1] addresses T1, muscarinic receptors (whole heart) (Rattus norvegicus, UniProt P10980).
T1 construct: All the organs were then homogenized in a Potter apparatus; from tissue; host or cells: whole heart homogenate of male Sprague-Dawley rats
T1 sequence (P10980 1-466): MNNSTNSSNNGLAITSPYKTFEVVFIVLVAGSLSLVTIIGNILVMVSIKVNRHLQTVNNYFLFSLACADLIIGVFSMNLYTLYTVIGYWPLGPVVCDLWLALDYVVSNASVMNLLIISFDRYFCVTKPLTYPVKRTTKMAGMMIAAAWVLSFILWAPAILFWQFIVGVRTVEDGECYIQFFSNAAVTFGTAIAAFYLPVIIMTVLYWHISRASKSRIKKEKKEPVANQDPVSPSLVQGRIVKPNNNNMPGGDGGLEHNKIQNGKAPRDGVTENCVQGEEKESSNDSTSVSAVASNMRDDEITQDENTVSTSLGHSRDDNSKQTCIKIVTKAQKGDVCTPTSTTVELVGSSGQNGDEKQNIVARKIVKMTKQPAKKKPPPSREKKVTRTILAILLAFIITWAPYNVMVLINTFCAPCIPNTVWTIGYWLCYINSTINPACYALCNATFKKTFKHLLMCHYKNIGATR
Briefly: Receptor binding test (3H-N-methylscopolamine displacement), heart. The arrangement: species or system Sprague-Dawley rats. The following applies: 0.3 n molar 3H-NMS, 30° C., 45 minutes, read-out: Receptor binding tests IC50, Heart. The procedure:
(§1) The organ donors were male Sprague-Dawley rats with a body weight of from 180 to 200 g. After the heart, stomach and cerebral cortex had been removed, the remainder of the operation was carried out in ice-cold Hepes-HCl buffer (pH 7.4; 100 m molar NaCl, 10 m molar MgCl2). The smooth muscle of the fundus of the stomach was separated from the mucous membrane of the stomach and subjected to preliminary homogenization. The whole heart was cut up with scissors. All the organs were then homogenized in a Potter apparatus.
(§2) For the binding test, the homogenized organs were diluted as follows:
The homogenized organ preparations were incubated at a specific concentration of a radio labeled compound and with a series of concentrations of the non-radioactive test substances in an Eppendorf centrifuge tube at 30° C. Then duration of incubation was 45 minutes. 0.3 n molar ^3 H-N-methylscopolamine (^3 H-NMS) was used as the radio labeled compound. After incubation had been brought to an end by centrifuging at 14 000 g, the radioactivity in the pellet was determined. It represents the sum of the specific and non-specific binding of ^3 H-NMS. The proportion of non-specific binding was defined as the radioactivity which was bound in the presence of 1μ molar quinuclidinylbenzylate. Four measurements were taken in each case. The IC50 values of the non-labelled test substances were determined graphically. […]

The test system of data set [2] is muscarinic receptors (oxotremorine-induced lesions of the gastric mucous membrane). Briefly: Oxotremorine test: anti-ulcerative effect (lesions in mucous membrane of stomach). Type of data set: in vivo, albino rats (Crl:COBS-CD (SD) BR strain). The following applies: iv; rat, i.v. 15 minutes before oxotremorine 0.62 mg/kg i.v.; neostigmine 1 mg/kg oral. How it is done:
(§3) Oxotremorine, a specific agonist for muscarinic receptors, produces lesions in the mucous membrane of the stomach in rats and increases their secretion of saliva. This test method was chosen so that any selective activity of an antimuscarinic substance on the stomach could be identified.
(§4) 10 female albino rats (of the Crl:COBS-CD (SD) BR strain) with a body weight of from 120 to 150 g were used in each treatment group and were kept without food for 24 hours before the start of the test but given free access to drinking water.
(§5) In order to determine, in preliminary tests, the muscarinic effect of oxotremorine on each of the symptoms studied, a dosage/activity curve was drawn up with at least three dosages for each symptom.
(§6) When testing the antimuscarinic substances, the dosage of oxotremorine which triggered the symptom in question in 90 to 100% of the animals in the preliminary tests was used.
Lesions in mucous membrane of stomach: 0.62 mg/kg i.v.
(§7) Each antimuscarinic substance was administered intravenously in uniformly graduated doses 15 minutes before the oxotremorine was administered. Control groups were given corresponding quantities of the solvent and suspending agent without the test substance.
(§8) Immediately after the oxotremorine was administered, the animals were placed in a glass case for 15 minutes and observed.
(§9) The ED50 values were determined using the method described by LITCHFIELD and WILCOXON (J. Pharmacol. Exp. Ther. 96, 99, 1949).
The effects on lesions of the mucous membrane of the stomach were evaluated as follows:
The lesions of the gastric mucous membrane were produced by intravenous injection of 0.62 mg/kg of oxotremorine 30 minutes after the oral administration of 1 mg/kg of neostigmine (a cholinesterase inhibitor). 60 minutes after the administration of the neostigmine, the animals were killed, the stomachs were removed and opened and examined for the presence of any lesions in the mucous membrane. The protective effect of the test substances was expressed as the percentabge inhibition (percentage of animals without lesions). The ED50 and ED70 values were determined using the method of LITCHFIELD AND WILCOXON (see above).

The nature of data set [3]: Mydriasis (effect on pupil size). As to conditions: in vivo, iv; rat, pupil size observed for 10 minutes; double blind. The arrangement: species or system rats. How it is done:
The effect of the test substances on the pupil size in rats was investigated as follows:
The substances were administered intravenously to groups of 10 animals in at least three uniformly graduated doses. […] The percentage of test animals in which mydriasis occurred was determined. The ED50 values were again determined using the method of LITCHFIELD and WILCOXON (see above).

Data set [4] can be described thus: Oxotremorine test: inhibition of salivation. The arrangement: species or system albino rats (Crl:COBS-CD (SD) BR strain). The following applies: in vivo, iv; rat, i.v. 15 minutes before oxotremorine 0.083 mg/kg i.v.; double blind. The procedure: as §3, §4, §5, §6
Secretion of saliva: 0.083 mg/kg i.v.
as §7, §8, §9

Data set [5] has as its target muscarinic receptors (smooth muscle of the fundus of the stomach). Briefly: Receptor binding test (3H-N-methylscopolamine displacement), smooth muscle fundus of stomach. The arrangement: species or system Sprague-Dawley rats. As to conditions: 0.3 n molar 3H-NMS, 30° C., 45 minutes, read-out: Receptor binding tests IC50, Smooth muscle fundus of stomach. How it is done:
as §1, §2
Smooth muscle of the fundus of the stomach: 1:100
(§10) The homogenized organ preparations were incubated at a specific concentration of a radio labeled compound and with a series of concentrations of the non-radioactive test substances in an Eppendorf centrifuge tube at 30° C. Then duration of incubation was 45 minutes. 0.3 n molar ^3 H-N-methylscopolamine (^3 H-NMS) was used as the radio labeled compound. After incubation had been brought to an end by centrifuging at 14 000 g, the radioactivity in the pellet was determined. It represents the sum of the specific and non-specific binding of ^3 H-NMS. The proportion of non-specific binding was defined as the radioactivity which was bound in the presence of 1μ molar quinuclidinylbenzylate. Four measurements were taken in each case. The IC50 values of the non-labelled test substances were determined graphically. They represent the concentration of test substance at which the specific binding of ^3 H-NMS to the muscarinic receptors in the various organs was inhibited by 50%.

Data set [6] concerns the target muscarinic receptors (cerebral cortex). As to the kind of experiment: Receptor binding test (3H-N-methylscopolamine displacement), cerebral cortex. The arrangement: species or system Sprague-Dawley rats. As to conditions: 0.3 n molar 3H-NMS, 30° C., 45 minutes, read-out: Receptor binding tests IC50, Cortex. The procedure: as §1, §2, §10
A short description of data set [7]: Water solubility of the base (remark). Type of data set: physicochemical. The following applies: free base.

Turning to `CN1CCC(OC(=O)N2c3ccccc3C(=O)Nc3cccnc32)CC1` [A, 5,11-dihydro-11-[[(1-methyl-4-piperidinyl)oxy]carbonyl]-6H-pyrido[2,3,-b][1,4]benzodiazepin-6-one], the IC50 in data set [1] is 500 nM; in data set [5], roughly 900 nM; in data set [6] it was 100 nM. Also, in data set [2], the ED50 was found to be 0.01 mg/kg. For the same compound, the ED70 in data set [2] was 0.03 mg/kg. Further, the 50% effect level in data set [3] (ED50 at 10 min) was put at a dose of 0.13 mg/kg. In addition, it took a dose of 0.85 mg/kg to reach the 50% effect level in data set [4] (ED50 at 0.25 h).

`CN1CCC(NC(=O)N2c3ccccc3C(=O)Nc3cccnc32)CC1` [B, 5,11-dihydro-11-[[(1-methyl-4-piperidinyl)amino]carbonyl]-6H-pyrido[2,3-b][1,4]benzodiazepin-6-one] had an ED50 in data set [2] of 0.0068 mg/kg. For the same compound, the ED70 in data set [2] came out at 0.019 mg/kg. In data set [3], this compound had an ED50 at 10 min of 0.139 mg/kg. The compound further registered an ED50 at 0.25 h in data set [4] of 0.42 mg/kg. For the same compound, the IC50 in data set [5] was 1200 nM; in data set [6] it was 200 nM.

As for `CN1CCN(NC(=O)N2c3ccccc3C(=O)Nc3cccnc32)CC1` [C], in data set [2], the ED50 stood at 0.0033 mg/kg. This compound had an ED70 in data set [2] of 0.0052 mg/kg. For the same compound, in data set [3], the ED50 at 10 min is 0.07 mg/kg. The same compound showed an ED50 at 0.25 h in data set [4] of 0.056 mg/kg. In data set [7], the “water solubility (in words)” value was “watersoluble”. The IC50 in data set [5] is 900 nM; in data set [6], 60 nM.
